Assay results as given in patent publication US10512699B2 (Cedars-Sinai Medical Center, priority 2008, dated 2019).

How the values were obtained:
[1] = biological target: T1, Aβ plaques (Homo sapiens, UniProt P05067); assay: Ex vivo curcumin staining of brain cryosections and retinas of AD-Tg mice; assay type: binding, mouse
Description: Brain cryosections (30 μm thick), retina cross sections (cryosections) (7 μm thick) and whole mount retinas were treated with a permeabilization/blocking solution containing 20% horse serum (Invitrogen) and 0.01-0.1% Triton X-100 (Sigma-Aldrich, St. Louis, Mo.). Sections were stained overnight at 4° C. with a specified combination of the following primary Abs in PBS containing 10% blocking solution: mouse anti-Aβ [human amino-acid residues 1-17; clone 6E10 (1:100; Milipore, Temecula, Calif.)]. […]
Micrographs of stained tissues were obtained on an Axio Imager Z1 ApoTome-equipped microscope (with motorized Z-drive) with AxioCam MRm monochrome camera ver. […] Quantitative analysis of Aβ plaque number and area (mm^2) was performed from two wholemounted retinas per mouse (n=4 mice per group). […] Quantitative analysis of Aβ plaque number and area (mm^2) in the brain was determined from three coronal sections (two hemispheres each) per mouse with 450 μm intervals, over an area covering hippocampal and cortical regions. […] Total area and quantitative levels of immunoreactivity were determined using a standardized custom histogram-based threshold technique, and then subjected to particle analysis.

[2] = biological target: T1, Aβ plaques; assay: In vivo labeling of Aβ plaques after systemic curcumin administration, tissues examined afterwards; parameters: species or system mouse
Description: Mice were anesthetized and perfused with 4% ice-cold buffered PFA, and a group of mice were not perfused. Their eyes were enucleated and fixed immediately in 4% fresh PFA overnight. For whole mount retinas, the eyes were dissected and the anterior part was removed. The eyecups were soaked for 10 minutes in hyaluronidase (type I-S) (0.07 mg/ml) (Sigma) to liquefy and remove the vitreous residues, than washed for 10 minutes×3 in PBS, and the whole mount retinas were collected. For whole eye sectioning, the eyes were put in 30% sucrose in 4% PFA for 2 hours, than washed for 15 minutes×3 in PBS. The eyes were embedded in O.C.T and frozen slowly on dry ice than sagittal sectioned (7 μm) with cryostat. Brains were collected and fixed immediately in 4% fresh PFA overnight. The brains were put in 30% sucrose (in 4% PFA) gradient. Brains were washed for 15 minutes×3 in PBS, next embedded in O.C.T and frozen slowly on dry ice, then coronal sectioned (30 μm) with cryostat. […] Subsequently, brains and eyes were cryosectioned, or prepared for whole mount retina.

[3] = biological target: T1, Aβ plaques; assay: Ex vivo curcumin staining of postmortem human whole-mount retinas; assay type: binding
Description: We also analyzed the human retinas with antibodies directed against human Aβ.
Autopsy eyes from Alzheimer's patients were procured from the Alzheimer's Disease Research Center, Department of Pathology, University of Southern California (Los Angeles, Calif.), under IRB protocols 99491 and 3201. Healthy donor eyes were purchased from National Disease Research Interchange (NDRI, Philadelphia, Pa.). NDRI has a human tissue collection protocol approved by a managerial committee and subject to National Institutes of Health oversight. Diseased and normal eyes were fixed and stored in 10% neutral buffered formalin. In addition, we used two healthy eyes that were frozen without fixation and stored at −80° C. Whole-mount retinas were prepared from the eyes and further studied by immunohistochemisty.
The samples were covered with GVA mounting media (Zymed).

[4] = biological target: T1, Aβ plaques; assay: In vivo imaging of the retina in live mice after curcumin injection; parameters: species or system mouse; conditions: single injection 7.5 mg/kg, two hours prior to imaging, excitation 546/15 nm, AD-Tg mice
Description: To investigate the feasibility of our approach for noninvasive plaque detection, we conducted an in vivo imaging of the retina in live mice using a modified stereomicroscope (Leica S6E) with a wavelength-controlled light source and a digital camera.
Mice were anaesthetized with Ketamine 100 mg/ml/kg and Xylazine 20 mg/ml/kg. Mouse pupils were dilated to about 2 mm in diameter with 0.5% phenylephrine hydrochloride ophthalmic solution (Bausch & Lomb) combined with 0.5% tropicamide ophthalmic solution (Mydral; Bausch & Lomb). During the imaging process, the mice were positioned on a stage of the stereomicroscope, and the eye was covered with a drop of PBS supplemented with calcium and magnesium, which served as an optical coupling medium between the eye surface and the imaging lens. A modified stereomicroscope (Leica S6E) that was adjusted to visualize fluorescence and scatter signals at higher resolution was used to capture images (exposure time 750 ms. with gain 4). The modified stereomicroscope was assembled to include a Polychrome V (Till Photonics) variable wavelength light source, a MicroFire color digital camera (Optronics), and an additional 6× (double convex) magnifying lens, with a focal length of 10 cm. Images were repeatedly captured at several different angles, in order to visualize a larger field and to eliminate non-specific reflection signals.

T1 sequence (P05067 672-713 limits assumed): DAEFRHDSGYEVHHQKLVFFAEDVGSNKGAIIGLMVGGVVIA

Affinity for Aβ plaques in vivo ([2]; mice, intravenous injection): high affinity for Aβ plaques in vivo | Blood-brain barrier crossing ([2]; mice, intravenous injection): crosses the blood-brain barrier | Blood-retina barrier crossing ([2]; mice, intravenous injection): also crosses the blood-retina barrier | Co-localization of curcumin with anti-human Aβ immunolabeling ([3]; human AD retinas, curcumin after immunolabeling): confirmed their co-localization | Plaques detected by curcumin in human retinas ([3]; postmortem AD patient eyes (n=9), after Sudan Black B, none in non-AD eyes): found in all AD patient eyes examined | Visibility of curcumin-labeled plaques in live mouse retina [4]: curcumin-labeled plaques were visible
SMILES: COc1cc(/C=C/C(=O)CC(=O)/C=C/c2ccc(O)c(OC)c2)ccc1O [curcumin, diferuloylmethane]
Curcumin staining of plaques detected by anti-human Aβ antibodies ([1]; hippocampus of AD-Tg mice, brain cryosections, ex vivo): had an affinity to the same plaques that were detected by antibodies specific to human Aβ | Curcumin labeling of retinal Aβ plaques ([1]; retinas of AD-Tg mice, whole mount and cross-section, not in non-Tg (wt) mice): presence of Aβ plaques labeled by both curcumin and anti-human AP-antibodies | Detection of labeled plaques following administered curcumin ([2]; i.v., single or multiple injections, retinas and brains): could be detected in the retinas and brains of AD-Tg mice, but not in the non-Tg (wt) controls | Detection of retinal Aβ plaques ([2]; systemically at a single dose of 7.5 mg/kg or given orally): effective in detecting retinal Aβ plaques
